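These data come from cells grown in 96-well plates and exposed to compound for 48 hours at five concentrations. At the TGI there is no net growth.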
Experiments:
Test in all cases: DTP human tumour cell line panel, 48 h
K-562 leukemia = system: K-562 leukemia
SR leukemia = system: SR leukemia
COLO 205 colon = system: COLO 205 colon
A498 renal = system: A498 renal
IGROV1 ovarian = system: IGROV1 ovarian
EKVX NSCLC = system: EKVX NSCLC
A549 NSCLC = system: A549 NSCLC
HL-60(TB) leukemia = system: HL-60(TB) leukemia
SNB-75 CNS = system: SNB-75 CNS
UO-31 renal = system: UO-31 renal
SF-295 CNS = system: SF-295 CNS
SK-MEL-5 melanoma = system: SK-MEL-5 melanoma
SK-MEL-28 melanoma = system: SK-MEL-28 melanoma
RPMI-8226 leukemia = system: RPMI-8226 leukemia
UACC-62 melanoma = system: UACC-62 melanoma
DLD-1 colon = system: DLD-1 colon
786-0 renal = system: 786-0 renal
DMS 273 small cell lung = system: DMS 273 small cell lung
SF-268 CNS = system: SF-268 CNS
ACHN renal = system: ACHN renal
TK-10 renal = system: TK-10 renal
SF-539 CNS = system: SF-539 CNS
NCI-H522 lung = system: NCI-H522 lung
MOLT-4 leukemia = system: MOLT-4 leukemia
LOX IMVI melanoma = system: LOX IMVI melanoma
HCC-2998 colon = system: HCC-2998 colon
HCT-15 colon = system: HCT-15 colon
OVCAR-3 ovarian = system: OVCAR-3 ovarian
XF 498 CNS = system: XF 498 CNS
HOP-92 NSCLC = system: HOP-92 NSCLC
NCI-H460 lung = system: NCI-H460 lung
HT29 colon = system: HT29 colon
SN12C renal = system: SN12C renal
OVCAR-8 ovarian = system: OVCAR-8 ovarian
NCI-H23 lung = system: NCI-H23 lung
LXFL 529 NSCLC = system: LXFL 529 NSCLC
SW-620 colon = system: SW-620 colon
M14 melanoma = system: M14 melanoma
NCI-H226 lung = system: NCI-H226 lung
OVCAR-5 ovarian = system: OVCAR-5 ovarian
CCRF-CEM leukemia = system: CCRF-CEM leukemia
SK-OV-3 ovarian = system: SK-OV-3 ovarian
SNB-78 CNS = system: SNB-78 CNS
CAKI-1 renal = system: CAKI-1 renal
MALME-3M melanoma = system: MALME-3M melanoma
SK-MEL-2 melanoma = system: SK-MEL-2 melanoma
DMS 114 small cell lung = system: DMS 114 small cell lung
HCT-116 colon = system: HCT-116 colon
U251 CNS = system: U251 CNS
HOP-18 NSCLC = system: HOP-18 NSCLC
UACC-257 melanoma = system: UACC-257 melanoma
HOP-62 NSCLC = system: HOP-62 NSCLC
KM20L2 colon = system: KM20L2 colon
RXF 393 renal = system: RXF 393 renal
SNB-19 CNS = system: SNB-19 CNS
KM12 colon = system: KM12 colon
M19-MEL melanoma = system: M19-MEL melanoma
OVCAR-4 ovarian = system: OVCAR-4 ovarian

Question: Which results are given for `N#CC(C(=O)C(=O)Nc1ccc(Cl)c(Cl)c1)c1ccc(Cl)cc1` (centres undefined)?
Answer: TGI (K-562 leukemia): 60.1 µM; TGI (SR leukemia): > 100 µM; TGI (COLO 205 colon): > 100 µM; TGI (A498 renal): > 100 µM; TGI (IGROV1 ovarian): > 100 µM; TGI (EKVX NSCLC): > 100 µM; TGI (A549 NSCLC): > 100 µM; TGI (HL-60(TB) leukemia): > 100 µM; TGI (SNB-75 CNS): > 100 µM; TGI (UO-31 renal): > 100 µM; TGI (SF-295 CNS): > 100 µM; TGI (SK-MEL-5 melanoma): > 100 µM; TGI (SK-MEL-28 melanoma): > 100 µM; TGI (RPMI-8226 leukemia): > 100 µM; TGI (UACC-62 melanoma): > 100 µM; TGI (DLD-1 colon): > 100 µM; TGI (786-0 renal): > 100 µM; TGI (DMS 273 small cell lung): > 100 µM; TGI (SF-268 CNS): > 100 µM; TGI (ACHN renal): > 100 µM; TGI (TK-10 renal): > 100 µM; TGI (SF-539 CNS): > 100 µM; TGI (NCI-H522 lung): 65.5 µM; TGI (MOLT-4 leukemia): > 100 µM; TGI (LOX IMVI melanoma): 31.1 µM; TGI (HCC-2998 colon): > 100 µM; TGI (HCT-15 colon): > 100 µM; TGI (OVCAR-3 ovarian): > 100 µM; TGI (XF 498 CNS): > 100 µM; TGI (HOP-92 NSCLC): 99.2 µM; TGI (NCI-H460 lung): 96.7 µM; TGI (HT29 colon): > 100 µM; TGI (SN12C renal): > 100 µM; TGI (OVCAR-8 ovarian): > 100 µM; TGI (NCI-H23 lung): > 100 µM; TGI (LXFL 529 NSCLC): > 100 µM; TGI (SW-620 colon): 30.8 µM; TGI (M14 melanoma): > 100 µM; TGI (NCI-H226 lung): > 100 µM; TGI (OVCAR-5 ovarian): > 100 µM; TGI (CCRF-CEM leukemia): > 100 µM; TGI (SK-OV-3 ovarian): > 100 µM; TGI (SNB-78 CNS): > 100 µM; TGI (CAKI-1 renal): > 100 µM; TGI (MALME-3M melanoma): > 100 µM; TGI (SK-MEL-2 melanoma): > 100 µM; TGI (DMS 114 small cell lung): 45.7 µM; TGI (HCT-116 colon): 49.8 µM; TGI (U251 CNS): > 100 µM; TGI (HOP-18 NSCLC): > 100 µM; TGI (UACC-257 melanoma): > 100 µM; TGI (HOP-62 NSCLC): > 100 µM; TGI (KM20L2 colon): > 100 µM; TGI (RXF 393 renal): > 100 µM; TGI (SNB-19 CNS): > 100 µM; TGI (KM12 colon): > 100 µM

Question: Which results are given for `O=C1C2C3CCC(C2C(=O)N1CO)C1C2C(=O)N(CO)C(=O)C2C31` (centres undefined)?
Answer: TGI (K-562 leukemia): > 75.2 µM; TGI (SR leukemia): 36.7 µM; TGI (COLO 205 colon): > 59.6 µM; TGI (A498 renal): > 100 µM; TGI (M19-MEL melanoma): > 100 µM; TGI (IGROV1 ovarian): > 100 µM; TGI (EKVX NSCLC): > 100 µM; TGI (A549 NSCLC): > 67.6 µM; TGI (HL-60(TB) leukemia): 31.1 µM; TGI (SNB-75 CNS): > 100 µM; TGI (UO-31 renal): > 100 µM; TGI (SF-295 CNS): > 100 µM; TGI (SK-MEL-5 melanoma): 98.9 µM; TGI (SK-MEL-28 melanoma): > 100 µM; TGI (RPMI-8226 leukemia): 47.7 µM; TGI (UACC-62 melanoma): > 100 µM; TGI (DLD-1 colon): > 65.6 µM; TGI (786-0 renal): > 61.3 µM; TGI (DMS 273 small cell lung): > 58.1 µM; TGI (SF-268 CNS): > 86.3 µM; TGI (ACHN renal): > 63 µM; TGI (TK-10 renal): > 100 µM; TGI (SF-539 CNS): > 85.3 µM; TGI (NCI-H522 lung): > 100 µM; TGI (MOLT-4 leukemia): 67.7 µM; TGI (LOX IMVI melanoma): > 61.9 µM; TGI (HCC-2998 colon): > 100 µM; TGI (HCT-15 colon): > 60.4 µM; TGI (OVCAR-3 ovarian): > 100 µM; TGI (XF 498 CNS): > 100 µM; TGI (HOP-92 NSCLC): > 100 µM; TGI (NCI-H460 lung): > 54.5 µM; TGI (HT29 colon): > 100 µM; TGI (SN12C renal): > 69.2 µM; TGI (OVCAR-8 ovarian): > 67.6 µM; TGI (NCI-H23 lung): > 100 µM; TGI (LXFL 529 NSCLC): > 100 µM; TGI (SW-620 colon): > 67.5 µM; TGI (M14 melanoma): > 100 µM; TGI (NCI-H226 lung): > 100 µM; TGI (OVCAR-5 ovarian): > 100 µM; TGI (CCRF-CEM leukemia): 48.2 µM; TGI (SK-OV-3 ovarian): > 100 µM; TGI (SNB-78 CNS): > 100 µM; TGI (CAKI-1 renal): > 100 µM; TGI (MALME-3M melanoma): > 100 µM; TGI (SK-MEL-2 melanoma): > 100 µM; TGI (OVCAR-4 ovarian): > 58.8 µM; TGI (DMS 114 small cell lung): > 59.5 µM; TGI (HCT-116 colon): > 54.2 µM; TGI (U251 CNS): > 56.2 µM; TGI (HOP-18 NSCLC): 34.2 µM; TGI (UACC-257 melanoma): > 100 µM; TGI (HOP-62 NSCLC): > 100 µM; TGI (KM20L2 colon): > 79.8 µM; TGI (RXF 393 renal): > 68.6 µM; TGI (SNB-19 CNS): > 100 µM; TGI (KM12 colon): > 100 µM
